This is an account of results in PubChem BioAssay (NCI).

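A five-concentration, 48-hour dose response in 96-well plates underlies each endpoint, interpolated linearly between surrounding concentrations. Here, GI50 denotes the concentration required for 50% inhibition of growth. TGI is the concentration that stops growth completely.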 Where only a bound is given, the exact number is not on record here.

Test systems include NCI-H522 lung; SF-268 CNS; TK-10 renal; UACC-62 melanoma; UO-31 renal; DU-145 prostate; EKVX NSCLC; SW-620 colon; KM12 colon; HOP-62 NSCLC.
Assay in all cases: growth of human tumour cells (NCI), 48 h

Consider `C=CCN1CC2CON(C(=O)C(OC)(c3ccccc3)C(F)(F)F)C2C1C(C)C` (centres undefined), for which the GI50 in the test with NCI-H522 lung is 27.5 µg/mL; in the test with SF-268 CNS, 70.5 µg/mL; in the test with TK-10 renal, 99.3 µg/mL; in the test with UACC-62 melanoma, 45.1 µg/mL; in the test with UO-31 renal, 26.3 µg/mL; in the test with DU-145 prostate it was 54 µg/mL. For the same compound, the GI50 in the test with EKVX NSCLC is 33.6 µg/mL; with SW-620 colon, 62.8 µg/mL; in the test with KM12 colon, 36.2 µg/mL. Also, the TGI in the test on NCI-H522 lung was 78.8 µg/mL; in the test with EKVX NSCLC, 99.1 µg/mL.
For `COc1ccc2c3c(Nc4ccc(/C(C)=N/O)cc4)[nH]c4ccccc4c-3c(N=O)c2c1`, the GI50 with NCI-H522 lung was 18900 nM; in the test with SF-268 CNS it was 1070 nM; with TK-10 renal, 5.05 µM; in the test on UACC-62 melanoma it was 7910 nM; in the test on UO-31 renal it was 18.5 µM; in the test with DU-145 prostate, 2040 nM. The GI50 with EKVX NSCLC was 3740 nM; in the test on SW-620 colon, 1360 nM; in the test with KM12 colon it was 1130 nM; in the test on HOP-62 NSCLC, 11600 nM. Moreover, the TGI with NCI-H522 lung is 41.9 µM; in the test on SF-268 CNS, 34.9 µM; in the test with TK-10 renal, 71.7 µM; in the test with UACC-62 melanoma, 23.7 µM; with UO-31 renal it was 35.5 µM; in the test with DU-145 prostate, 4.79 µM. The TGI is 20.4 µM in the test with EKVX NSCLC, 2.85 µM in the test on SW-620 colon, 4.39 µM in the test with KM12 colon and 30.9 µM in the test on HOP-62 NSCLC.
With `Cc1ncc([N+](=O)[O-])n1CCNS(=O)(=O)CCCn1ncnc1[N+](=O)[O-]`, the TGI in the test with NCI-H522 lung, with SF-268 CNS, in the test on TK-10 renal, with UACC-62 melanoma, in the test on UO-31 renal and in the test with DU-145 prostate was more than 100 µM each time. Also, the TGI with EKVX NSCLC, with SW-620 colon, in the test with KM12 colon and in the test with HOP-62 NSCLC was more than 100 µM in each case.
Regarding `O=C(CSC(c1ccccc1)c1ccccc1)N/N=C/c1ccco1`, the GI50 in the test on NCI-H522 lung was 1400 nM; in the test with SF-268 CNS, 2250 nM; with TK-10 renal, 2.21 µM; in the test with UACC-62 melanoma, 2520 nM; with UO-31 renal, 2.03 µM; in the test on DU-145 prostate it was 2690 nM. Besides, the GI50 in the test on EKVX NSCLC is 2440 nM; in the test with SW-620 colon, 2900 nM; in the test with KM12 colon, 2030 nM; with HOP-62 NSCLC it was 1840 nM. The TGI in the test on NCI-H522 lung was 4.49 µM; with SF-268 CNS it was more than 12.5 µM; in the test with TK-10 renal, 7.62 µM; in the test on UACC-62 melanoma it was 16.2 µM; in the test on UO-31 renal, 10.3 µM; in the test on DU-145 prostate, more than 4.92 µM. The TGI was more than 5.19 µM in the test on EKVX NSCLC, more than 11.6 µM with SW-620 colon, 15.5 µM in the test on KM12 colon and 3.84 µM with HOP-62 NSCLC.
As for `CCN(CC)c1cc2oc3cc(N)cc(=N)c-3nc2cc1C`, the GI50 was 2310 nM with NCI-H522 lung; 3260 nM in the test on SF-268 CNS; 4.9 µM with TK-10 renal; 2060 nM in the test with UACC-62 melanoma; 3.38 µM in the test on UO-31 renal; 2200 nM in the test on DU-145 prostate. For the same compound, the GI50 in the test on EKVX NSCLC was 4020 nM; with SW-620 colon, 2750 nM; in the test with KM12 colon, 3930 nM; in the test with HOP-62 NSCLC, 2910 nM. For the same compound, the TGI worked out at 6.05 µM in the test on NCI-H522 lung; 18.2 µM in the test with SF-268 CNS; 23.1 µM in the test on TK-10 renal; 5.94 µM in the test on UACC-62 melanoma; 49 µM in the test on UO-31 renal; 4.92 µM in the test with DU-145 prostate. Further, the TGI with EKVX NSCLC stood at 54.6 µM; with SW-620 colon, 19.5 µM; with KM12 colon it was 29.8 µM; in the test with HOP-62 NSCLC it was 9.26 µM.
As to `Cc1nn(C(=O)c2ccc(Cl)cc2)c2c1C(c1ccc(O)cc1)SC(N)=N2` (centres undefined), the TGI in the test on NCI-H522 lung, in the test on SF-268 CNS, in the test with TK-10 renal, in the test on UACC-62 melanoma, in the test with DU-145 prostate and in the test on EKVX NSCLC was more than 10 µM in each case. Further, the TGI with SW-620 colon, in the test with KM12 colon and in the test on HOP-62 NSCLC was more than 10 µM each time.
On to `O=C1CSC(c2ccc(-c3nc4ccccc4s3)cc2)=N1`, for which the GI50 was 32900 nM with NCI-H522 lung; 17.5 µM in the test with TK-10 renal; 18000 nM in the test on UACC-62 melanoma; 74.8 µM with UO-31 renal; 67000 nM in the test on DU-145 prostate; 1810 nM in the test with EKVX NSCLC. Moreover, the GI50 in the test on SW-620 colon was 50500 nM; with KM12 colon it was 3110 nM; with HOP-62 NSCLC, 43700 nM. In addition, the TGI is 96.2 µM with NCI-H522 lung; 65.1 µM in the test with TK-10 renal; 45.2 µM with UACC-62 melanoma; more than 100 µM in the test with UO-31 renal; more than 100 µM in the test with DU-145 prostate; 13.5 µM in the test with EKVX NSCLC. The TGI in the test with SW-620 colon is more than 100 µM; in the test with KM12 colon it was 13.8 µM; in the test on HOP-62 NSCLC it was more than 100 µM.
Turning to `COc1ccc2c(c1)C(C)Cc1c(ncnc1-n1cnc3cc(C)ccc31)N2C` (centres undefined), the GI50 in the test on NCI-H522 lung was 54.4 nM; in the test with SF-268 CNS, 222 nM; with UACC-62 melanoma, 43.6 nM; with UO-31 renal, 0.106 µM; with DU-145 prostate it was 325 nM; with EKVX NSCLC it was 250 nM. Besides, the GI50 in the test on SW-620 colon is 87 nM; in the test with KM12 colon it was 132 nM; with HOP-62 NSCLC, 70.7 nM. Further, the TGI in the test on NCI-H522 lung stood at 0.325 µM; with SF-268 CNS, 15 µM; with UACC-62 melanoma, 18 µM; in the test with UO-31 renal, 13.1 µM; in the test with DU-145 prostate, 12.1 µM; in the test on EKVX NSCLC it was 23.2 µM. The figures for the TGI in the test on SW-620 colon, in the test with KM12 colon and in the test with HOP-62 NSCLC were 16.1 µM, 11.7 µM and 18.2 µM, respectively.
With `CC1C(=O)OC2CC[N+]3([O-])CC=C(COC(=O)C(C)(O)C1(C)O)C23` (centres undefined), the TGI with NCI-H522 lung, in the test on SF-268 CNS, in the test on TK-10 renal, in the test with UACC-62 melanoma, in the test on DU-145 prostate and in the test on EKVX NSCLC was more than 100 µM each time. Moreover, the TGI in the test with SW-620 colon, with KM12 colon and with HOP-62 NSCLC was more than 100 µM each time.
Regarding `Nc1ccc2nc3n(c2c1)C(=O)c1ccccc1-3`, the TGI in the test with NCI-H522 lung, in the test on SF-268 CNS, in the test on TK-10 renal, in the test with UACC-62 melanoma, with UO-31 renal and in the test on DU-145 prostate was more than 100 µM in each case. Also, the TGI in the test with EKVX NSCLC, in the test on SW-620 colon and in the test with KM12 colon was more than 100 µM throughout.
